These results are taken from ChEMBL document CHEMBL5042500 (J Med Chem, 2022).

As usually defined, the IC50 is the point on the concentration scale where inhibition reaches its midpoint. Broadly, the chromatographic logD is a lipophilicity value derived from retention on a column. Low readings indicate a more hydrophilic compound, high ones a more lipophilic compound. One may read the inhibition as the relative decrease from the control value, in per cent. Lower therefore signals a response near the control. In general, Emax refers to the maximal effect, on the per cent scale that the assay sets. As usually defined, the solubility is the dissolved amount per volume that the medium holds. A lower solubility goes with a poorly soluble substance.

A short description of series [1]: Photostability of compound. The class given is physicochemical.
For series [2], the target named is T1, Serine/threonine-protein kinase Sgk1 (Homo sapiens, UniProt O00141).
T1 sequence (O00141 whole entry): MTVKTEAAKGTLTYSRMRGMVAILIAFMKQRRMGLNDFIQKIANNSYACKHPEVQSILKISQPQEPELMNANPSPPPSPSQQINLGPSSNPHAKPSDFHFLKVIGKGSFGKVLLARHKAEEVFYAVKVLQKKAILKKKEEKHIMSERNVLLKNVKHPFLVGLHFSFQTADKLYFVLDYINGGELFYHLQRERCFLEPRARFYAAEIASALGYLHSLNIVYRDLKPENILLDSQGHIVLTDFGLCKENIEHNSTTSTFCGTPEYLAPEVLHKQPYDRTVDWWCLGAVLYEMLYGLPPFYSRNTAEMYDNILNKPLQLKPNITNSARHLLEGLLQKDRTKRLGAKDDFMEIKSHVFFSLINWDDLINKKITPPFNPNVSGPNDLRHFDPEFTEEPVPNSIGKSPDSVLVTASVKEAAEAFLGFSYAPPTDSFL
In words: Inhibition of recombinant human SGK1 expressed in baculovirus expression system using 5-carboxyfluorescein -RPRAATF-NH2 as substrate preincubated for 30 mins followed by substrate addition in presence of 500 uM ATP and measured after 60 mins by microfluidics assay.

Series [3] relates to Salmonella typhimurium. In words: Mutagenicity in Salmonella typhimurium […] in presence of S9 fraction by ames test. Format: toxicity, organism-based. As to conditions: salmonella enterica subsp. enterica serovar typhimurium.
Series [4] deals with Salmonella typhimurium. In words: Mutagenicity in Salmonella typhimurium […] by ames test. The conditions noted are these: salmonella enterica subsp. enterica serovar typhimurium. Format: toxicity, organism-based.
Series [5] is described as follows: Metabolic stability in human liver microsomes assessed as compound degradation in presence of NADPH measured after 20 mins. The class given is ADME, Microsome. The conditions noted are these: read-out: Drug degradation. A general note: Liver microsomes are a subcellular fraction often used to study metabolism.
In series [6] the target is T1, Serine/threonine-protein kinase Sgk1. In words: Inhibition of recombinant human SGK1 expressed in baculovirus expression system using 5-carboxyfluorescein -RPRAATF-NH2 as substrate preincubated for 30 mins followed by substrate addition in presence of 10 uM ATP and measured after 60 mins by microfluidics assay.
Series [7] in a line: Effect on chondrocyte hypertrophic differentiation mouse ATDC-5 cells assessed as inhibition of […] gene expression incubated for 2 weeks followed by compound added and every 3 days medium is changed measured after 2 weeks by RT-qPCR analysis. The class given is functional, cell-based. In general terms: Real-time PCR tracks product formation cycle by cycle.
A short description of series [8]: Metabolic stability in Sprague-Dawley rat liver microsomes assessed as compound degradation in presence of NADPH measured after 20 mins. The class given is ADME, Microsome. The conditions noted are these: read-out: Drug degradation.
The nature of series [9]: Chemical stability of the compound at pH 7.4 measured after 24 hrs. The class given is physicochemical. As to conditions: buffer, read-out: Stability.
Series [10] in a line: Distribution coefficient, logD of compound at pH 7.4 by chromatographic analysis. The class given is physicochemical. As to conditions: octanol/water.
The nature of series [11]: Permeability in human Caco2 cells at 20 uM incubated for 120 mins by ESI-MS/MS analysis. The class given is ADME, cell-based. As to conditions: Caco-2, read-out: permeability.
Series [12] in a line: Intrinsic clearance in human hepatocytes assessed per 10^-6 cells. Format: ADME, cell-based, Hepatocyte.
Series [13] concerns the target T2, hERG (KCNH2) (Homo sapiens, UniProt Q12809). In words: Inhibition of human ERG at 10 uM. Format: toxicity.
In series [14] the target is T3, Cytochrome P450 3A4 (Homo sapiens, UniProt P08684). In words: Inhibition of CYP3A4 in human liver microsomes using midazolam as substrate incubated for 10 mins by LC-MS/MS analysis. Format: ADME.
Series [15] addresses T3, Cytochrome P450 3A4. In words: Inhibition of CYP3A4 in human liver microsomes using testosterone as substrate incubated for 30 mins by LC-MS/MS analysis. The class given is ADME.
Series [16] is described as follows: Metabolic stability in CD1 mouse liver microsomes assessed as compound degradation in presence of NADPH measured after 20 mins. The class given is ADME, Microsome. As to conditions: read-out: Drug degradation.
Series [17] has as its target T2, hERG (KCNH2). In words: Inhibition of human ERG at 1 uM relative to control. Format: toxicity.
A further series addresses CYP3A4 (Homo sapiens, UniProt P08684). In words: Inhibition of CYP3A4 in human liver microsomes by measuring maximum efficacy. Format: ADME.
Series [18] in a line: Aqueous solubility of the compound at pH 7.4. The class given is physicochemical.
A short description of series [19]: Solubility of the compound in FeSSIF at pH 5.0. The class given is physicochemical.
Series [20] deals with Femur. In words: Induction of chondrogenesis in femoral head cartilage isolated from C57BL/6 mouse model of osteoarthritis assessed as reduction in intensity of collagen type x staining at 10 uM incubated for 2 weeks in hypertrophic condition and twice for week medium is changed by immunohistochemical staining based analysis. The class given is functional, tissue-based.
The test system of series [21] is Femur. In words: Induction of chondrogenesis in femoral head cartilage isolated from C57BL/6 mouse model of osteoarthritis assessed as reduction in intensity of collagen type x staining incubated for 2 weeks in hypertrophic condition and twice for week medium is changed by immunohistochemical staining based analysis. The class given is functional, tissue-based.

Series [22] in a line: Inhibition of rat SGK1 in presence 500 uM presence of ATP.
Series [23] has as its target Ribosomal protein S6 kinase alpha-1 (Homo sapiens) (UniProt Q15418). In words: Inhibition of RSK1 kinase (unknown origin) at 0.1 uM.
Series [24] has as its system Femur. In words: Induction of chondrogenesis in femoral head cartilage isolated from C57BL/6 mouse model of osteoarthritis assessed as reduction in intensity of collagen type x staining at 2 uM incubated for 2 weeks in hypertrophic condition and twice for week medium is changed by immunohistochemical staining based analysis. Format: functional, tissue-based.
In series [25] the target is T4, Serine/threonine-protein kinase Sgk1 (Mus musculus, UniProt Q9WVC6).
T4 sequence (Q9WVC6 whole entry): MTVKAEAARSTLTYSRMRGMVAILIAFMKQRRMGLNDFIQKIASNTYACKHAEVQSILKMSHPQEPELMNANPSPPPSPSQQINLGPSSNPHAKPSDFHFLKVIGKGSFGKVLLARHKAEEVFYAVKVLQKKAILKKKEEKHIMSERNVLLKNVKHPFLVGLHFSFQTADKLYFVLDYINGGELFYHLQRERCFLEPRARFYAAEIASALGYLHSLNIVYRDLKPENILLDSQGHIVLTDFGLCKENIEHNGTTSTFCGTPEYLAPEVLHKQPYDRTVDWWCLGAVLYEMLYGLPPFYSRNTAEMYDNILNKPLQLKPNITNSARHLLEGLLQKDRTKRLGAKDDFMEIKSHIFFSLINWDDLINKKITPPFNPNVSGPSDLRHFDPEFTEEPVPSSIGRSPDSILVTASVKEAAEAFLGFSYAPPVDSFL
In words: Inhibition of mouse SGK1 in presence 500 uM presence of ATP.

Values after ≈ are worked out from the molar mass of the structure shown. Active and inactive are the calls of the source. The rule behind the calls is not given here.

T3 sequence (P08684 whole entry): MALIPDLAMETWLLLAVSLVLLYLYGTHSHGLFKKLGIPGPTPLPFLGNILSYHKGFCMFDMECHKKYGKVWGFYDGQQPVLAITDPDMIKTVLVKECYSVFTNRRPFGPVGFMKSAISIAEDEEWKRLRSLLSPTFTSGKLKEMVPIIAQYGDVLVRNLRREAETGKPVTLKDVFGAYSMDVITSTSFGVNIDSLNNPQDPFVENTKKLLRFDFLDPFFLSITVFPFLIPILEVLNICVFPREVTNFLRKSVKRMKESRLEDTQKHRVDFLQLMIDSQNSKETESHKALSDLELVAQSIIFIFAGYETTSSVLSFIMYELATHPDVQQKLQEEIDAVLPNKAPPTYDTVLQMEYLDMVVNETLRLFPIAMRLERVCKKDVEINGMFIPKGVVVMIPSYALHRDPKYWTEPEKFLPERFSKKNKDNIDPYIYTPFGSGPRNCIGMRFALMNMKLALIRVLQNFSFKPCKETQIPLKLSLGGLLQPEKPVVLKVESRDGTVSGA
T2 sequence (Q12809 whole entry): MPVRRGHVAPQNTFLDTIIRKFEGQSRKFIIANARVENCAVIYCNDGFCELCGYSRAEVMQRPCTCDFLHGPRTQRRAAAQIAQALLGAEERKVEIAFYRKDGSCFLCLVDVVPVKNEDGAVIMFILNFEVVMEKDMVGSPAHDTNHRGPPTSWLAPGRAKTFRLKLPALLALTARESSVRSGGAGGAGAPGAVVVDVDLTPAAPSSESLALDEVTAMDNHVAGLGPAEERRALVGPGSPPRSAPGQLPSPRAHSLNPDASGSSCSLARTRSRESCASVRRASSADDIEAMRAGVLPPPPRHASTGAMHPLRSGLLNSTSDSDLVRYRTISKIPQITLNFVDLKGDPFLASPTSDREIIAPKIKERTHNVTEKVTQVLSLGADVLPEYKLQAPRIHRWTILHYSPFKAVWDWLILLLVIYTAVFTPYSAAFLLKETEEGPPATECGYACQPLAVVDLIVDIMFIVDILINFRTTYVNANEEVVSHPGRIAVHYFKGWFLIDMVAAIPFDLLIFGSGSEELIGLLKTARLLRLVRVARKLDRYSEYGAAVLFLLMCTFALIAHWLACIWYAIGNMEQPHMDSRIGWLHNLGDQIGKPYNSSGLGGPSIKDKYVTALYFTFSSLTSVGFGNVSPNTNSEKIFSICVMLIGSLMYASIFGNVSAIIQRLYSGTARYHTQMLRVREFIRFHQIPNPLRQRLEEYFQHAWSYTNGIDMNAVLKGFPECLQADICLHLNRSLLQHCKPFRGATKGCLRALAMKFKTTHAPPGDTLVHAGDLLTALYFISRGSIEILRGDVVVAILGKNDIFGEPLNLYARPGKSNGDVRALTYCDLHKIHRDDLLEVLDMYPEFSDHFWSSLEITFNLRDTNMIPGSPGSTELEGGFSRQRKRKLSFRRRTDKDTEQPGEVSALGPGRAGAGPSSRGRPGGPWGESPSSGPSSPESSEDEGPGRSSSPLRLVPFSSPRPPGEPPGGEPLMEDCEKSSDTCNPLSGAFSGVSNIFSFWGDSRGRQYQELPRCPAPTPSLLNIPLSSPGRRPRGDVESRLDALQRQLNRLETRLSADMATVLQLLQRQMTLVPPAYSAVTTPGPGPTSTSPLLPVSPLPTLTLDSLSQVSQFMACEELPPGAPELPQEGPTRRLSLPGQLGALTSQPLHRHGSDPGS
CYP3A4, sequence (P08684 whole entry): as the sequence (P08684 whole entry) above
Ribosomal protein S6 kinase alpha-1 (Homo sapiens), sequence (Q15418 whole entry): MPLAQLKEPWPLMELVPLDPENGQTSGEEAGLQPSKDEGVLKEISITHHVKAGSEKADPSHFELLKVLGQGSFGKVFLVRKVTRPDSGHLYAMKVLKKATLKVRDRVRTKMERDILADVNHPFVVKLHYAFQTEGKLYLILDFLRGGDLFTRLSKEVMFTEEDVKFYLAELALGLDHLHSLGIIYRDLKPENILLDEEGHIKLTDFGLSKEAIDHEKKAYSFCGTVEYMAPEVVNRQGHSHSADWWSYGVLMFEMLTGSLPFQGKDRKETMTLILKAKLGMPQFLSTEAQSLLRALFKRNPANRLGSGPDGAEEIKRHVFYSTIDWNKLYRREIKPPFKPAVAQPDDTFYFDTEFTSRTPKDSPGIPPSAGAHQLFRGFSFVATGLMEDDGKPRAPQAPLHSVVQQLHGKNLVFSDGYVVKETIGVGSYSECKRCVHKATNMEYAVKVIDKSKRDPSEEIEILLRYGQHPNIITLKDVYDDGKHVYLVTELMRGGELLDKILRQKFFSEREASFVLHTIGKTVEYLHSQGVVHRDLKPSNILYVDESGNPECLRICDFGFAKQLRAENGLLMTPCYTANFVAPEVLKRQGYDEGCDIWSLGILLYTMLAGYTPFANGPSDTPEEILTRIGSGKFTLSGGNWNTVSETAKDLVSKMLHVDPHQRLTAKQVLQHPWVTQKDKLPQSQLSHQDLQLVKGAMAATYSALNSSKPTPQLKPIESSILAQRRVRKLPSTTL

`Nc1n[nH]c2nc(-c3ccc(NS(=O)(=O)c4cc(Cl)ccc4F)cc3)ncc12` had a Stability in series [1] of 99.3%.
Still for that read-out and setting: with `Nc1n[nH]c2nc(-c3ccc(NS(=O)(=O)c4cccc(Cl)c4Cl)cc3)ccc12` the figure was 10.1%; with `Nc1n[nH]c2nc(-c3ccc(NS(=O)(=O)c4cc(Cl)c(F)cc4F)cc3)ncc12`, 98.6%.
As to `Cc1n[nH]c2nc(-c3ccc(NS(=O)(=O)c4cc(Cl)ccc4F)cc3)nc(OC3CCN(C4CC4)CC3)c12`, the IC50 is 4 nM in series [2]; 2 nM in [6]; 7 nM in [7]; above 30000 nM against Cytochrome P450 3A4 [14]; above 30000 nM on Cytochrome P450 3A4 [15]. Also, the Activity entry in the series with Salmonella typhimurium [3] and with Salmonella typhimurium [4] was “Non-Toxic” throughout. Besides, the metabolised at 20 min turned out to be 19% in series [5], 4% in series [8] and 11% in [16]. For the same molecule, the remaining at 24 h in [9] was 100%. Also, the chromatographic logD in [10] was determined as 3.4. Also, the Papp at 2 h, 20 µM in series [11] was found to be 5 ×10⁻⁶ cm/s. The molecule also came in with a CLH in [12] of 0.02 mL/h. In addition, the inhibition at 10 µM at hERG (KCNH2) [13] was 5%. The molecule further showed an inhibition at 1 µM at hERG (KCNH2) [17] of 24%. The maximal effect (Emax) at CYP3A4 was 3%. For the same molecule, the solubility is below 1 µg/mL in series [18] and 17 µg/mL (≈ 30.5 µM) in series [19].
Molecule `Nc1n[nH]c2nc(-c3ccc(NS(=O)(=O)c4cc(Cl)ccc4F)cc3)ccc12` came in with a Stability in series [1] of 91.7%.
Still for that read-out and setting: then `Nc1n[nH]c2nc(-c3ccc(NS(=O)(=O)c4c(F)cc(F)cc4F)cc3)ccc12`, with 97.4%.
Regarding `Cc1n[nH]c2nc(-c3ccc(NS(=O)(=O)c4cc(Cl)ccc4F)cc3)nc(OC3CCC(O)CC3)c12` (stereo not drawn), the concentration for half-maximal inhibition (IC50) in [2] and in series [6] was below 2 nM throughout.
In the case of `Cc1n[nH]c2nc(-c3ccc(NS(=O)(=O)c4cc(Cl)ccc4F)cc3)nc(OCC3CN(C(C)C)C3)c12`, the half-inhibitory concentration (IC50) in series [2] and in [6] was 1 nM throughout.
Regarding `Nc1n[nH]c2nc(-c3ccc(NS(=O)(=O)c4cccc(Cl)c4F)cc3)ccc12`, the Stability in [1] is reported as 87.2%.
As to `CCN1CCC(Oc2nc(-c3ccc(NS(=O)(=O)c4cc(Cl)ccc4F)cc3)nc3[nH]nc(C)c23)CC1`, the 50% inhibitory concentration (IC50) was determined as 4 nM in [2] and 2 nM in [6].
In the case of `Cc1n[nH]c2nc(-c3ccc(NS(=O)(=O)c4cc(Cl)ccc4F)cc3)nc(OC3CCNCC3(F)F)c12` (stereo not drawn), the concentration for half-maximal inhibition (IC50) in series [2] and in [6] was 1 nM in each case.
`Cc1n[nH]c2nc(-c3ccc(NS(=O)(=O)c4cc(Cl)ccc4F)cc3)nc(OC3CCOCC3)c12`: the results for the IC50 in [2] and in [6] were 14 nM and 5 nM, respectively.
In the same order, the values of `CCNC(=O)c1cc(-c2ccc(NS(=O)(=O)c3cccc(Cl)c3Cl)cc2)nc2[nH]ncc12` are below 1920 nM and 6 nM.
`O=S(=O)(Nc1ccc(-c2nc(O[C@H]3CC[C@H](O)CC3)c3cn[nH]c3n2)cc1)c1cc(Cl)ccc1F`: the Activity entry with Salmonella typhimurium [3] and in the series with Salmonella typhimurium [4] was “Non-Toxic” throughout. For the same molecule, the outcome with Femur [20] and in the series with Femur [21] was Active. Also, the metabolised at 20 min is 13% in series [5], 7% in [8] and 6% in [16]. Also, the IC50 in series [7] is 50 nM; on Cytochrome P450 3A4 [14], above 3000 nM; in [22], 358 nM; against Cytochrome P450 3A4 [15], above 3000 nM; in series [25], 253 nM. Besides, the remaining at 24 h in [9] was 100%. Besides, the chromatographic logD in series [10] amounted to 2.8. For the same molecule, the Papp at 2 h, 20 µM in series [11] was found to be 8.6 ×10⁻⁶ cm/s. At hERG (KCNH2) [13], this molecule gave an inhibition at 10 µM of 65%. The molecule further came in with an inhibition in [23] of 57%. Further, 1 µM produced 0% inhibition against hERG (KCNH2) [17]. The result with Femur [24] was inactive. Further, the Emax at CYP3A4 turned out to be 13%. This molecule also registered a solubility in series [18] of 4 µg/mL (≈ 7.72 µM).
For the molecule `CCN1CCC(CNC(=O)c2cc(-c3ccc(NS(=O)(=O)c4cccc(Cl)c4Cl)cc3)nc3[nH]ncc23)C1` (racemic), the half-inhibitory concentration (IC50) in series [2] is 109 nM; in series [6], below 1 nM.
`Nc1n[nH]c2nc(-c3ccc(NS(=O)(=O)c4ccccc4Cl)cc3)ccc12` came in with a Stability in [1] of 46.1%.
As to `O=C(NC1CCN(C2CC2)C1)c1cc(-c2ccc(NS(=O)(=O)c3cccc(Cl)c3Cl)cc2)nc2[nH]ncc12` (racemic), the 50% inhibitory concentration (IC50) in series [2] amounted to 610 nM; in [6], 6 nM.
